According to patent publication US4004008A, “O-Tertiary amino-alkyl-N-benzoyl tyrosil amides” (priority 1974, dated 1977):
Values after ≈ are worked out from the molar mass of the structure shown.

Columns and labels:
[1] = system: ileum of a cavy (BaCl2 spasm); assay: Antispastic activity in vitro, Magnus method, cavy ileum stimulated with BaCl2; type: cell-based; settings: for Antisp. activity in vitro on the ileum of a cavy by Stim. BaCl2: ED50 pap./ED50 CR: ratio to papaverine = 1, Table 1, 37°
In short: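 Isolated guinea-pig ileum in oxygenated nutritive bath at 37°, compound added beforehand to block BaCl2-induced contraction (Magnus method). ED50 is the dose halving spastic contraction; values expressed as ratio to papaverine.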

[2] = system: caudal artery of a rat (electric stimulation); assay: Antispastic activity on caudal artery of rat, electrically stimulated; type: cell-based; settings: 50% reduction of response to electric stimulation
Protocol: In another experiment the caudal artery of a rat was electrically stimulated and the pharmaceuticals were added to the bath. The activity was assessed at ED50, i.e., the quantity of pharmaceutical expressed in μg/ml of the perfusion liquid able to reduce by half the response of the electric stimulation compared with that of the checks.
Antispastic activity of some of the compounds claimed on the caudal artery of a rat, electrically stimulated: the values are expressed in ED50 (see Specification).

rat = assay: Acute toxicity (DL50) i.v. in rat; type: in vivo; settings: dose causing death in 50% of the animals
In short: (§1)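 Rat acute toxicity given intravenously; DL50 is the dose in mg/kg body weight that kills 50% of treated animals.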

[3] = system: intestinal transit of the charcoal; assay: Vegetable carbon (charcoal) intestinal transit test in vivo; design: species or system rat; settings: i.v., rat, charcoal test, 2 hours
In short: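 Rats fasted 24 h received 0.3 ml oral charcoal/gum arabic suspension together with test substance (i.v., s.c. or oral). Killed at 2 h; animals scored positive when charcoal had not reached the first portion of the colon. ED50 derived from this test.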

[4] = system: caudal artery of a rat (ergotamine tartrate contraction); assay: Antispastic activity on caudal artery of rat stimulated with ergotamine tartrate; type: cell-based; settings: ergotamine tartrate 350 μg/ml of perfusion liquid, 50% reduction of contraction
Protocol: An in vitro evaluation of this activity was made upon the caudal artery of a rat, suspended, so that one can register the variation of internal pressure, and contracted with ergotamine tartrate put in to the arterial lumen of the said vessel with a dose of 350 μg/ml of perfusion liquid.
The spasm was antagonised with the compounds being tested. The evaluation was made with ED50, i.e., a concentration of the product in the perfusion liquid expressed as μg/ml able to reduce the contraction thus induced by 50%.
Antispastic activity of some of the claimed compounds upon the caudal artery of a rat stimulated with ergotamine tartrate: values are expressed in ED50 (see specification).

urinary bladder of a rat = assay: Urinary bladder movement of anaesthetised rat in vivo; settings: intravenous, anaesthetised rat; read-out: Urinary sac of rat in vivo ED50
Source text: The in vivo evaluation was made upon the urinary bladder of a rat anaesthetised and placed in an environment heated to the animals body temperature whilst the bladder which is exposed is linked to a system which registers its movement. The pharmaceutilcals were given to the animals by intravenous means.

rat's ureter = assay: Ureter of rat in vitro; type: cell-based; settings: Rattus norvegicus; read-out: Ureter of rat in vitro ED50
Source text: The in vitro evaluation was made on a rat's ureter suspended in a bath of physiological liquid according to a method similar to the Magnus method already described.

stomach and pylorus = assay: Perfusion outflow of stomach and pylorus (gastro-pyloric spasm by morphine); type: in vivo; settings: i.v.; CR 605 5, CR 725 10, CR 603 12.5 mg/kg; morphine 250 μg
Source text: (§7) The results shown in this table were obtained by perfusing with a physiological solution, the stomach and the bile ducts respectively and collecting the liquid emerging after the pylorus and the sphineter of Oddi.

[5] = system: cavy ileum (serotonine spasm); assay: Antispastic activity in vitro on cavy ileum, spasmiser serotonine; type: cell-based; settings: Table 2; ED50 ratio
Protocol: (§2) C. The method in vitro is that of Magnus, with the ileum of the cavy, and is in common use for all evaluations. It consists of extracting the ileum from the cavy and placing it in a receptacle which contains nutritive liquid, suitably oxygenated, and registering the movements of the organ which remains alive for several hours if maintained at a temperature of 37°. According to the traditional method followed by us, BaCl2 is put into the bath as a spasmisant: the reaction is a violent contraction of the organ. This contraction can be prevented by adding beforehand pharmaceuticals which inhibit spasms, and in this case our compounds.
(§3) The activities which have been described so far both in vitro and in vivo can be confirmed using different animals or different organs. These activities are further improved if, instead of BaCl2 other spasmisers are used, such as serotoninehistamine and oxytocine (see Table 2).
(§4) The values contained in the table are expressed as comparison between the
(§5) substance being studied, and they therefore express the activity of the
(§6) compounds compared with known, very active substances.

[6] = Acute toxicity (DL50) i.v. in rat; type: in vivo; settings: in vivo, iv, dose causing death in 50% of the animals
In short: as §1

[7] = system: rat uterus (oxytocine spasm); assay: Antispastic activity in vitro on rat uterus, spasmiser oxytocine; type: cell-based; settings: Table 2; ED50 ratio
Source text: as §3, §4, §5, §6

[8] = system: bile ducts (sphincter of Oddi); assay: Perfusion outflow of bile ducts (bile duct spasm by morphine); type: in vivo; settings: i.v.; CR 605 5, CR 725 10, CR 603 12.5 mg/kg; morphine 250 μg
Source text: as §7

[9] = system: cavy ileum (histamine spasm); assay: Antispastic activity in vitro on cavy ileum, spasmiser histamine; type: cell-based; settings: Table 2; ED50 ratio
Protocol: as §2, §3, §4, §5, §6

Row | Compound | Antisp. activity in vitro on the ileum of a cavy by Stim. BaCl2: ED50 pap./ED50 CR [1] | ED50, caudal artery, electrically stimulated [2] [µg/mL] | DL50 in a rat (rat) [mg/kg] | Antisp. activity in transit test: ED50 [3] [mg/kg] | ED50, caudal artery, ergotamine tartrate [4] [µg/mL] | Antisp. activity in transit test: ED50 ([3]; 120 min) [mg/kg] | Antispastic activity in vitro, cavy ileum, BaCl2 (relative to papaverine = 1) ([1]; Table 2, ED50 of test substance papaverine / ED50 of compound) | ED50 (urinary bladder of a rat) [mg/kg] | IC50 ([2]; Rattus norvegicus, read-out: ED50, caudal artery, electrically stimulated) [µg/mL] | IC50 (rat's ureter) [µg/mL] | Stomach and pylorus, outflow after the 1st hour (stomach and pylorus) [mL] | Stomach and pylorus, outflow after the 2nd hour (stomach and pylorus) [mL] | Antispastic activity in vitro, cavy ileum, serotonine (relative to methysergide = 1) [5] | LD50 [6] [mg/kg] | Antispastic activity in vitro, rat uterus, oxytocine (relative to papaverine = 1) [7] | ED50 ([3]; Rattus norvegicus, iv, 2 h, read-out: Antisp. activity in transit test: ED50) [mg/kg] | IC50 ([4]; Rattus norvegicus, read-out: ED50, caudal artery, ergotamine tartrate) [µg/mL] | Bile ducts, outflow after the 1st hour [8] [mL] | Bile ducts, outflow after the 2nd hour [8] [mL] | Antispastic activity in vitro, cavy ileum, histamine (relative to prometazine = 1) [9]
1 | CCCCNC(=O)C(Cc1ccc(OCCN2CCCC2)cc1)NC(=O)c1ccc(C)cc1 (racemic) [CR 651, O-(2-pyrrolidil-N'-ethyl)-N-toluoyl-DL-tyrosil-n-butylamide] | 1.60 | 19 (≈ 42.1 µM) | 34.1 | 16.3 | 37 (≈ 81.9 µM) | – | – | – | – | – | – | – | – | – | – | – | – | – | – | –
2 | CCCN(CCC)C(=O)C(Cc1ccc(OCCCN(C)C)cc1)NC(=O)c1ccccc1 (racemic) [CR 816, O-(3-dimethylamino-propyl)-N-benzoyl-DL-tyrosil-di-n-propylamide] | 2.00 | 7 (≈ 15.4 µM) | 16.0 | – | 12 (≈ 26.5 µM) | 5.5 | – | – | – | – | – | – | – | – | – | – | – | – | – | –
3 | CCCN(CCC)C(=O)C(Cc1ccc(OCCN(C)C)cc1)NC(=O)OCc1ccccc1 [CR 603, O-(2-dimethylamino-ethyl)-N-carbobenzoxy-L-tyrosil-di-n-propylamide] | 2.40 | – | – | – | – | – | 2.4 | 6.9 | 76 (≈ 162 µM) | 86 (≈ 183 µM) | 157.0 | 160.8 | 0.87 | 63 | 0.008 | 30.5 | 105 (≈ 224 µM) | 50.3 | 48.8 | 0.09
